From ChEMBL document CHEMBL1151327, “Cytotoxicity of curcuminoids and some novel compounds from Curcuma zedoaria” (1998)
≈ marks a conversion by molar mass, not a printed value. Calls of active or inactive are those of the source. The rule behind the calls is not given here.

tested on: OVCAR-3; assay: Cytotoxicity against human OVCAR-3 upto 20 ug/mL after 48 hrs; format: functional, cell-based; conditions: not given

Row | Structure (SMILES) | Activity
1 | C=C(C)[C@@H]1CC[C@](C)(O)[C@H]2CC[C@](C)(O)[C@H]2C1 | inactive
2 | Cc1cc(C(=O)O)cc2c1CCC2C (stereo unspecified) | inactive
3 | Cc1coc2c1C(=O)[C@@H]1[C@@](C)(C2)[C@H](O)CC[C@@]1(C)O | inactive

tested on: OVCAR-3; assay: Cytotoxicity against human OVCAR-3 after 48 hrs; format: functional; conditions: OVCAR-3, 48 h, read-out: CD50 (the source's name)

Row | Structure (SMILES) | CC50 [µg/mL]
4 | O=C(/C=C/c1ccc(O)cc1)CC(=O)/C=C/c1ccc(O)cc1 [BISDEMETHOXYCURCUMIN] | 3.1 (≈ 10.1 µM)
5 | COc1cc(/C=C/C(O)=C/C(=O)/C=C/c2ccc(O)cc2)ccc1O [DEMETHOXYCURCUMIN] | 3.8 (≈ 11.2 µM)
6 | COc1cc(/C=C/C(=O)CC(=O)/C=C/c2ccc(O)c(OC)c2)ccc1O [CURCUMIN] | 4.4 (≈ 11.9 µM)
